From patent US20250311727A1, “SUBSTITUTED 2-AMINOAZINES AND SALTS THEREOF, AND USE THEREOF AS HERBICIDAL ACTIVE SUBSTANCES” (BAYER AKTIENGESELLSCHAFT, priority 2022, published 2025)

Experiments:
Format in all cases: in vivo
Kochia scoparia [1] = assay: Post-emergence herbicidal efficacy at 80 g/ha, KCHSC; details: rated visually after about 3 weeks vs untreated controls, 100% = plants have died
How it was run: (§1)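 Weeds grown in sandy loam under greenhouse conditions and sprayed post-emergence at the one-leaf stage (2–3 weeks after sowing) with WP or EC formulations plus 0.5% additive, 600 l/ha water. Activity scored visually about 3 weeks later versus untreated controls (0% = like control, 100% = plants dead).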

Abutilon theophrasti [2] = assay: Pre-emergence herbicide efficacy at 320 g/ha, ABUTH; details: scored visually after about 3 weeks vs untreated controls, 100% = plants have died
How it was run: (§2)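 Seeds were sown in sandy loam and covered with soil; WP or EC formulations were then sprayed onto the soil surface at 320 g/ha in 600 L/ha water with 0.5% additive. After about 3 weeks in the greenhouse, efficacy was scored visually as % versus untreated controls (100% = plants dead, 0% = like control).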

Amaranthus retroflexus [3] = assay: Pre-emergence herbicide efficacy at 320 g/ha, AMARE; details: scored visually after about 3 weeks vs untreated controls, 100% = plants have died
How it was run: as §2

Poa annua [4] = assay: Pre-emergence herbicide efficacy at 320 g/ha, POAAN; details: scored visually after about 3 weeks vs untreated controls, 100% = plants have died
How it was run: as §2

Kochia scoparia [5] = assay: Post-emergence herbicidal efficacy at 320 g/ha, KCHSC; details: rated visually after about 3 weeks vs untreated controls, 100% = plants have died
How it was run: (§3)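 Effects are visual ratings taken about three weeks after foliar application, scaled from 0% (as untreated control) to 100% (plants died). Application was at the one-leaf stage in greenhouse-grown pots.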

Poa annua [6] = assay: Post-emergence herbicidal efficacy at 320 g/ha, POAAN; details: rated visually after about 3 weeks vs untreated controls, 100% = plants have died
How it was run: as §3

Echinochloa crus-galli [7] = assay: Post-emergence herbicidal efficacy at 320 g/ha, ECHCG; details: rated visually after about 3 weeks vs untreated controls, 100% = plants have died
How it was run: as §3

Setaria viridis [8] = assay: Pre-emergence herbicide efficacy at 320 g/ha, SETVI; details: scored visually after about 3 weeks vs untreated controls, 100% = plants have died
How it was run: as §2

Abutilon theophrasti [9] = assay: Post-emergence herbicidal efficacy at 320 g/ha, ABUTH; details: rated visually after about 3 weeks vs untreated controls, 100% = plants have died
How it was run: as §3

Setaria viridis [10] = assay: Post-emergence herbicidal efficacy at 320 g/ha, SETVI; details: rated visually after about 3 weeks vs untreated controls, 100% = plants have died
How it was run: as §3

Kochia scoparia [11] = assay: Pre-emergence herbicide efficacy at 80 g/ha, KCHSC; details: scored visually after about 3 weeks vs untreated controls, 100% = plants have died
From the text: (§4) Unwanted plants/weeds: • ABUTH: Abutilon theophrasti • ALOMY: Alopecurus myosuroides • AMARE: Amaranthus retroflexus • DIGSA: Digitaria sanguinalis • ECHCG: Echinochloa crus-galli • KCHSC: Kochia scoparia • LOLRI: Lolium rigidum • MATIN: Matricaria inodora • POAAN: Poa annua • POLCO: Polygonum convolvulus • SETVI: Setaria viridis • STEME: Stellaria media • VERPE: Veronica persica • VIOTR: Viola tricolor A. Post-Emergence Herbicidal Efficacy at 320 g/ha
(§5) Seeds of monocotyledonous and dicotyledonous weed plants and crop plants were placed in plastic or organic planting pots and covered with soil. The compounds of the invention, formulated in the form of wettable powders (WP) or as emulsion concentrates (EC), were then applied to the surface of the covering soil as aqueous suspension or emulsion with addition of 0.5% additive at a water application rate equivalent to 600 l/ha. After the treatment, the pots were placed in a greenhouse and kept under good growth conditions for the test plants. After about 3 weeks, the efficacy of the preparations was scored visually in comparison with untreated controls as percentages. For example, 100% activity=the plants have died, 0% activity=like control plants.
(§6) Tables D1 to D12 below show the effects of selected compounds of the general formula (I) according to Table 1 on various harmful plants and an application rate corresponding to 80 g/ha, which were obtained by the experimental procedure mentioned above.

Veronica persica [12] = assay: Post-emergence herbicidal efficacy at 80 g/ha, VERPE; details: rated visually after about 3 weeks vs untreated controls, 100% = plants have died
How it was run: as §1

Setaria viridis [13] = assay: Pre-emergence herbicide efficacy at 80 g/ha, SETVI
How it was run: (§7)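 Pre-emergence test: pots sown with weed seeds, then compound (WP or EC) sprayed on the covering soil as aqueous suspension/emulsion with 0.5% additive at 600 l/ha water, here 80 g/ha. Greenhouse growth for about 3 weeks. Efficacy scored visually versus untreated controls, 0% (as control) to 100% (plants died).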

Polygonum convolvulus = assay: Pre-emergence herbicide efficacy at 80 g/ha, POLCO; details: scored visually after about 3 weeks vs untreated controls, 100% = plants have died
From the text: as §4, §5, §6

Viola tricolor [14] = assay: Post-emergence herbicidal efficacy at 80 g/ha, VIOTR; details: rated visually after about 3 weeks vs untreated controls, 100% = plants have died
From the text: as §4
Seeds of monocotyledonous and dicotyledonous weeds and crop plants were placed in sandy loam in plastic or organic planting pots, covered with soil and cultivated in a greenhouse under controlled growth conditions. 2 to 3 weeks after sowing, the test plants were treated at the one-leaf stage. The compounds of the invention, formulated in the form of wettable powders (WP) or as emulsion concentrates (EC), were then sprayed onto the green parts of the plants as aqueous suspension or emulsion with addition of 0.5% additive at a water application rate of 600 l/ha (converted). After the test plants had been kept in the greenhouse under optimum growth conditions for about 3 weeks, the activity of the preparations was rated visually in comparison to untreated controls. For example, 100% activity=the plants have died, 0% activity=like control plants.
Tables B1 to B11 below show the effects of selected compounds of the general formula (I) according to Table 1 on various harmful plants and an application rate corresponding to 80 g/ha, which were obtained by the experimental procedure mentioned above.

Amaranthus retroflexus [15] = assay: Post-emergence herbicidal efficacy at 320 g/ha, AMARE; details: rated visually after about 3 weeks vs untreated controls, 100% = plants have died
How it was run: as §3

Stellaria media [16] = assay: Post-emergence herbicidal efficacy at 320 g/ha, STEME; details: rated visually after about 3 weeks vs untreated controls, 100% = plants have died
How it was run: as §3

Amaranthus retroflexus [17] = assay: Post-emergence herbicidal efficacy at 80 g/ha, AMARE; details: rated visually after about 3 weeks vs untreated controls, 100% = plants have died
How it was run: as §1

Stellaria media [18] = assay: Pre-emergence herbicide efficacy at 320 g/ha, STEME; details: scored visually after about 3 weeks vs untreated controls, 100% = plants have died
How it was run: as §2

Digitaria sanguinalis [19] = assay: Post-emergence herbicidal efficacy at 320 g/ha, DIGSA; details: rated visually after about 3 weeks vs untreated controls, 100% = plants have died
How it was run: as §3

Amaranthus retroflexus [20] = assay: Pre-emergence herbicide efficacy at 80 g/ha, AMARE; details: scored visually after about 3 weeks vs untreated controls, 100% = plants have died
How it was run: as §7

Matricaria inodora = assay: Pre-emergence herbicide efficacy at 320 g/ha, MATIN; details: scored visually after about 3 weeks vs untreated controls, 100% = plants have died
From the text: as §4
(§8) Seeds of mono- and dicotyledonous weed plants were placed in plastic pots in sandy loam soil (doubly sown with one species each of mono- or dicotyledonous weed plants per pot) and covered with soil. The compounds of the invention, formulated in the form of wettable powders (WP) or as emulsion concentrates (EC), were then applied to the surface of the covering soil as aqueous suspension or emulsion with addition of 0.5% additive at a water application rate of 600 litres per hectare (converted). After the treatment, the pots were placed in a greenhouse and kept under good growth conditions for the test plants. After about 3 weeks, the efficacy of the preparations was scored visually in comparison with untreated controls as percentages.
(§9) For example, 100% activity=the plants have died, 0% activity=like control plants.
(§10) Tables C1 to C12 below show the effects of selected compounds of the general formula (I) according to Table 1 on various harmful plants and at an application rate corresponding to 320 g/ha, which were obtained by the trial procedure specified above.

Veronica persica [21] = assay: Pre-emergence herbicide efficacy at 80 g/ha, VERPE
From the text: as §4, §5, §6

Viola tricolor [22] = assay: Pre-emergence herbicide efficacy at 80 g/ha, VIOTR
How it was run: as §7

Veronica persica [23] = assay: Pre-emergence herbicide efficacy at 320 g/ha, VERPE; details: scored visually after about 3 weeks vs untreated controls, 100% = plants have died
How it was run: as §2

Digitaria sanguinalis [24] = assay: Pre-emergence herbicide efficacy at 80 g/ha, DIGSA; details: scored visually after about 3 weeks vs untreated controls, 100% = plants have died
How it was run: as §7

Veronica persica [25] = assay: Post-emergence herbicidal efficacy at 320 g/ha, VERPE; details: rated visually after about 3 weeks vs untreated controls, 100% = plants have died
How it was run: as §3

Digitaria sanguinalis [26] = assay: Pre-emergence herbicide efficacy at 320 g/ha, DIGSA; details: scored visually after about 3 weeks vs untreated controls, 100% = plants have died
How it was run: as §2

Echinochloa crus-galli [27] = assay: Pre-emergence herbicide efficacy at 320 g/ha, ECHCG; details: scored visually after about 3 weeks vs untreated controls, 100% = plants have died
How it was run: as §2

Lolium rigidum = assay: Pre-emergence herbicide efficacy at 320 g/ha, LOLRI; details: scored visually after about 3 weeks vs untreated controls, 100% = plants have died
From the text: as §4, §8, §9, §10

Kochia scoparia [28] = assay: Pre-emergence herbicide efficacy at 320 g/ha, KCHSC; details: scored visually after about 3 weeks vs untreated controls, 100% = plants have died
How it was run: as §2

## N#Cc1cccc(Nc2ncc(Cl)cn2)c1-n1cc(C(F)(F)F)cn1 [Example 1-38, 3-(5-Chloropyrimidin-2-ylamino)-2-(4-(trifluoromethyl)-1H-pyrazol-1-yl)benzonitrile]
Kochia scoparia [1]
  Post-emergence efficacy at 80 g/ha against KCHSC in %: 100%
Abutilon theophrasti [2]
  Pre-emergence efficacy at 320 g/ha against ABUTH in %: 90%
Amaranthus retroflexus [3]
  Pre-emergence efficacy at 320 g/ha against AMARE in %: 100%
Poa annua [4]
  Pre-emergence efficacy at 320 g/ha against POAAN in %: 100%
Kochia scoparia [5]
  Post-emergence efficacy at 320 g/ha against KCHSC in %: 100%
Poa annua [6]
  Post-emergence efficacy at 320 g/ha against POAAN in %: 90%
Echinochloa crus-galli [7]
  Post-emergence efficacy at 320 g/ha against ECHCG in %: 100%
Setaria viridis [8]
  Pre-emergence efficacy at 320 g/ha against SETVI in %: 100%
Abutilon theophrasti [9]
  Post-emergence efficacy at 320 g/ha against ABUTH in %: 90%
Setaria viridis [10]
  Post-emergence efficacy at 320 g/ha against SETVI in %: 90%
Kochia scoparia [11]
  Pre-emergence efficacy at 80 g/ha against KCHSC in %: 100%
Veronica persica [12]
  Post-emergence efficacy at 80 g/ha against VERPE in %: 90%
Setaria viridis [13]
  Pre-emergence efficacy against SETVI: 100%
Polygonum convolvulus
  Pre-emergence efficacy at 80 g/ha against POLCO in %: 100%
Viola tricolor [14]
  Post-emergence efficacy at 80 g/ha against VIOTR in %: 100%
Amaranthus retroflexus [15]
  Post-emergence efficacy at 320 g/ha against AMARE in %: 100%
Stellaria media [16]
  Post-emergence efficacy at 320 g/ha against STEME in %: 100%
Amaranthus retroflexus [17]
  Post-emergence efficacy at 80 g/ha against AMARE in %: 100%
Stellaria media [18]
  Pre-emergence efficacy at 320 g/ha against STEME in %: 100%
Digitaria sanguinalis [19]
  Post-emergence efficacy at 320 g/ha against DIGSA in %: 90%
Amaranthus retroflexus [20]
  Pre-emergence efficacy at 80 g/ha against AMARE in %: 100%
Matricaria inodora
  Pre-emergence efficacy at 320 g/ha against MATIN in %: 100%
Veronica persica [21]
  Pre-emergence efficacy against VERPE: 90%
Viola tricolor [22]
  Pre-emergence efficacy against VIOTR: 100%
Veronica persica [23]
  Pre-emergence efficacy at 320 g/ha against VERPE in %: 100%
Digitaria sanguinalis [24]
  Pre-emergence efficacy at 80 g/ha against DIGSA in %: 100%
Veronica persica [25]
  Post-emergence efficacy at 320 g/ha against VERPE in %: 100%
Digitaria sanguinalis [26]
  Pre-emergence efficacy at 320 g/ha against DIGSA in %: 100%
Echinochloa crus-galli [27]
  Pre-emergence efficacy at 320 g/ha against ECHCG in %: 90%
Lolium rigidum
  Pre-emergence efficacy at 320 g/ha against LOLRI in %: 90%
Kochia scoparia [28]
  Pre-emergence efficacy at 320 g/ha against KCHSC in %: 90%
